Source: patent US20180017584A1, “ADDITIVE CHANNELS” (Emulate Inc., priority 2016, published 2018)
Positions of bridges follow the written chain, without caps; N, C: chain ends. Non-standard residues stand in square brackets, D forms with d. Residues, ends and D or L forms follow the SMILES beside them. hArg = N=C(N)NCCCC[C@H](N)C(=O)O; Mpa = O=C(O)CCS

Columns and labels:
[1] = system: p-selectin on platelets; test: Quality control of platelet activation by p-selectin expression; format: cell-based, human; settings: control blood upon activation by ADP
Method: (§1) To test for a thrombic event, blood was collected from 4 donors, the as blood alone or blood treated with hu5C8 alone (240 μg/mL), sCD40L (10 ng/ml) alone or with combined hu5C8/sCD40L was incubated for 20 minutes at room temperature. Each sample was further incubated for 5 minutes with fluorescent labels for platelets and fibrinogen. As a standard quality control, the control blood was tested for platelet activation using p-selection expression. We confirmed that platelets in control blood were not activated but upon activation by ADP, over 90% of platelet was positive for p-selectin.

[2] = system: platelets in human whole blood perfused over HUVEC endothelium; test: Vessel-On-Chip blood perfusion, platelet coverage / aggregation by fluorescence imaging (CD41 label); format: cell-based; settings: for platelet coverage / platelet aggregate formation on the endothelium: vs blood alone, TNF-α 50 ng/ml 6 h, sCollagen 10 μg/ml, hu5C8 240 μg/ml + sCD40L 10 ng/ml
Method: (§2) Experiments with Blood: Blood Samples And Endothelium: Citrated human blood (Research Blood Components, Cambridge, Mass.) was used within 4 hours of a blood draw in order to minimize pre-analytical effects on platelet function. Before every experiment, each one of the endothelialized channels (i.e. microchannels having an endothelial cell layer) was inspected via light microscopy, Samples showing any sign of discontinuity in the endothelium were discarded.
(§3) Blood Pre-treatment and Perfusion: Formation of IC (preformed IC): Hu5C8, IgG2σ (control) (both provided by Janssen or provided as described herein) For studies with preformed IC, Hu5C8 or IgG2σ as an isotype control were combined with sCD40L (Tonbo Biosciences, San Diego, Calif.) in PBS, in a ratio of I molecule of sCD40L to 3000 molecules of antibody. After 20 minutes incubation at room temperature, the solution was diluted in a blood sample to reach the final concentration of 240 μg/ml (Hu5C8) and 10 ng/ml (sCD40L).
Platelets: Platelets were labeled with human CD41-PE antibody (10 μL/ml. Invitrogen) directly added to the blood and incubated at room temperature for 5 minutes.
Anticoagulant Drug: As an exemplary standard antiplatelet (anticoagulant) drug, Eptifibatide was used as described herein. Eptifibatide has a well-known mechanism of action, such that a bolus of 180 mcg/Kg is frequently used to treat human patients.^54 We estimated that a concentration of 2.4 μM (about 2 μg/ml) is a clinical relevant concentration. As described herein for experiments including Eptifibatide, 2 μg/ml of Eptifibatide were incubated with blood samples for 15 minutes at room temperature before adding sCollagen or before flowing through TNF-inflamed biomimetic vessel.
(§4) Adding Blood to a Vessel-On-Chip And Flow Conditions: A medical grade plastic reservoir was mounted on the chip, then 800 μl of the blood sample was pipetted into the reservoir. The chip was perfused with the blood by withdrawing it at a rate of 60 μl/minute using a syringe pump. The citrated blood was re-calcified 2 minutes after the beginning of each experiment by adding 100 μl/ml of a solution containing 100 mM calcium chloride and 75 mM magnesium chloride to the blood to permit calcium- and magnesium-dependent platelet function and coagulation.
(§5) Staining of Endothelial Cells: Samples were washed twice in cell culture medium and then fixed in acetone/methanol 1:1 at −20° C., for 10 minutes. Each sample was then washed three times in PBS and incubated in blocking solution consisting of PBS and 10% normal donkey serum (Abcam) for one hour. After blocking, samples were washed in PBS twice and then incubated with anti VE-Cadherin monoclonal antibody (Abeam) diluted 1:100 in blocking solution at 4° C. overnight. […] Fluorescence Image analysis: Chips perfused with blood samples were immediately imaged via fluorescence microscopy (Olympus 1X83, 10× objective UPLFLN10X2, Circa-Flash4.0 CMOS Camera). […] Image processing and quantification was performed with an automatic macro compiled in […] and numerical values corresponding to platelet coverage or fibrin florescence were collected and statistically analyzed in Graphpad Prism V7.
Platelet Coverage: A percentage of signal coverage (or Platelet coverage) was computed from the binary image as the ratio of bright pixels to the total number of pixels in the image, Image processing and quantification was performed with an automatic macro compiled in ImageJ in order to ensure unbiased signal measurements. […]

[3] = system: fibrin deposition from human whole blood on HUVEC endothelium; test: Vessel-On-Chip blood perfusion, fibrin deposition by fluorescent fibrinogen imaging; format: cell-based; settings: for fibrin deposition / fibrin signal intensity on the endothelium: vs blood alone, TNF-α 50 ng/ml 6 h, sCollagen 10 μg/ml, hu5C8 240 μg/ml + sCD40L 10 ng/ml
Method: as §2, §4
Visualizing Fibrin Deposition: When analyzing the formation of fibrin, 10 μg/ml of fluorescently labeled fibrinogen (Alexa 488, Invitrogen) was also added to the blood. While fluorescent fibrinogen was barely detected as a diffused fluorescence, fibrin deposition on inflamed cells and sparse clots was easily distinguished since fibrin formed filamentous structures produce a signal intensity that is clearly observed above a background threshold.
as §5, with “hour.” for “hour. After blocking, samples were washed in PBS twice and then incubated with anti VE-Cadherin monoclonal antibody (Abeam) diluted 1:100 in blocking solution at 4° C. overnight.”
Platelet Coverage: A percentage of signal coverage (or Platelet coverage) was computed from the binary image as the ratio of bright pixels to the total number of pixels in the image, Image processing and quantification was performed with an automatic macro compiled in ImageJ in order to ensure unbiased signal measurements. Numerical values corresponding to platelet coverage or fibrin fluorescence (signal intensity) were collected and statistically analyzed in Graphpad Prism V7.

[4] = system: thrombin anti-thrombin complex (TAT); test: Thrombin-Anti Thrombin (TAT) measurement via ELISA in chip effluent; format: cell-based, human; settings: for levels of TAT in outflow: vs blood alone, TNF-α 50 ng/ml 6 h endothelial pre-treatment, sCollagen in blood, hu5C8 240 μg/ml + sCD40L 10 ng/ml
Method: Thrombin-Anti Thrombin (TAT) measurement via ELISA: Thrombin Anti-Thrombin (TAT) levels were analyzed in plasma from blood flowing out of the chip device by removing a sample from the outflow port. Thus TAT levels were evaluated in sample effluents collected from the outflow port of the chip using the Human TAT ELISA Kit (Siemens Healthineers) according to the user manual.
Blood sampled from the Vessel-On-Chip outflow port was analyzed for thrombin anti-thrombin complex (TAT), a factor released upon activation of the coagulation cascade and one of the biomarkers associated with thrombotic events occurring in patients affected with deep vein thrombosis (DVT) or SLE^45,46. TAT is an accepted clinical biomarker for procoagulation^48,49. An enzyme-linked immunosorbent assay (ELISA) was used to quantify the thrombin anti-thrombin complex (TAT).

[5] = system: ICAM1; test: ICAM1 immunostaining of endothelium on chip; format: cell-based, human; settings: TNF-α stimulated endothelium
Method: ICAM1 is shown with examples identified by white arrows. One example of a DAPI stained nuclei is shown inside of a white circle.
TNF-alpha Stimulation: In some experiment endothelial cells were stimulate with 50 ng/ml of TNF (Sigma) for 6 hours in order to induce vascular inflammation before blood perfusion.

[6] = system: lupus nephritis patients; settings: lupus nephritis clinical study; cited from earlier work
[7] = system: human whole blood perfused over HUVEC endothelium; test: Thrombosis on-chip, combined endpoints (platelet coverage, fibrin deposition, TAT); format: cell-based; settings: hu5C8 alone 240 μg/mL; sCD40L alone 10 ng/ml; 4 donors; 60 μl/minute
Method: as §3, §1
Re-calcified blood samples were then perfused through the biomimetic vessel with untreated endothelium at a flow rate of 60 ul/minute for about 10 minutes while sodium citrate was re-introduced through the anticoagulant port. […]

[8] = Eptifibatide 2 ug/ml, endothelium inflamed with TNF-α, n=4

## Nc1ncnc2c1ncn2[C@@H]1O[C@H](COP(=O)(O)OP(=O)(O)O)[C@@H](O)[C@H]1O [ADP]
[1]
  platelets positive for p-selectin: over 90%

## N=C(N)NCCCC[C@@H]1NC(=O)CCSSC[C@@H](C(N)=O)NC(=O)[C@@H]2CCCN2C(=O)[C@H](Cc2c[nH]c3ccccc23)NC(=O)[C@H](CC(=O)O)NC(=O)CNC1=O [Eptifibatide] ([Mpa][hArg]GDWPC-NH2; disulfide 1-7)
[2]; [8]
  inhibition of platelet aggregation: significantly inhibited
[2]; Eptifibatide 2 ug/ml, following treatment with sCollagen, n=4
  inhibitory effect on platelet aggregation and fibrin clot formation: comparatively modest
[2]; Eptifibatide 2 ug/ml, n=4
  platelet adhesion (image analysis of multiple experiments): completely inhibited
[3]; [8]
  inhibition of fibrin clot formation: significantly inhibited
[3]; Eptifibatide 2 ug/ml, samples treated with TNF-α
  fibrin signal remaining under Eptifibatide: significant amount of fibrin signal was still detectable
[4]; Eptifibatide 2 ug/ml, TNF-α pre-treated endothelium
  effect on TAT increment associated with TNF-α-induced inflammation: did not inhibit
[4]; Eptifibatide 2 ug/ml, sCollagen-treated blood
  effect on TAT increment due to sCollagen treatment: entirely suppressed

## TNF-α
[2]
  platelet coverage / platelet aggregate formation on the endothelium: increased
[3]
  fibrin deposition / fibrin signal intensity on the endothelium: increased
[5]
  expression of ICAM1 in the endothelium compared to the control: increased expression
[4]
  levels of TAT in outflow: significantly increased

## hu5C8: humanized monoclonal IgG1 antibody against CD40L (anti-CD154)
[6]
  incidence of thromboembolitic events: 2/18
[7]
  treatment-related effects compared to untreated blood: no significant treatment-related effects

## sCollagen: soluble collagen (Soluble Calf Skin, Type I), a standard platelet activator
[2]
  platelet coverage / platelet aggregate formation on the endothelium: increased
[3]
  fibrin deposition / fibrin signal intensity on the endothelium: increased
[4]
  levels of TAT in outflow: minimally increased
